The text below walks through data of ChEMBL document CHEMBL4371032, “Synthesis and evaluation of 2,5-diamino and 2,5-dianilinomethyl pyridine analogues as potential CXCR4 antagonists” (2019).

The target of assay [1] is C-X-C chemokine receptor type 4 (Homo sapiens) (UniProt P61073). The experiment in a line: Inhibition of biotinylated TN14003 binding to CXCR4 in human MDA-MB-231 cells preincubated for 10 mins followed by biotinylated-TN14003 addition measured after 30 mins by streptavidin-rhodamine staining based fluorescence microscopic analysis. It counts as cell-based.
For assay [2] the target is unchanged. As to the kind of experiment: Inhibition of CXCR4-mediated chemotaxis in human MDA-MB-231 cells assessed as reduction in CXCL12alpha-induced cell invasion at 100 nM after 22 hrs by hematoxylin/eosin dye-based matrigel assay relative to control.
Assay [3] concerns Mus musculus. The experiment in a line: Antiinflammatory activity in C57Bl/6J mouse assessed as inhibition of carrageenan-induced paw edema at 10 mg/kg, ip treated for 2 days measured 2 hrs post last dose by caliper method relative to control. It counts as functional. In general terms: The carrageenan paw model is a standard test of acute inflammation.

The source made the active and inactive calls. No cut-off for these calls is given here.

As a reminder, the inhibition is the change of the read-out against control, counted positive when it falls. As usually defined, the inhibition in vivo is the share of the control response that was lost under treatment.

Chain of C-X-C chemokine receptor type 4 (Homo sapiens) (P61073 whole entry): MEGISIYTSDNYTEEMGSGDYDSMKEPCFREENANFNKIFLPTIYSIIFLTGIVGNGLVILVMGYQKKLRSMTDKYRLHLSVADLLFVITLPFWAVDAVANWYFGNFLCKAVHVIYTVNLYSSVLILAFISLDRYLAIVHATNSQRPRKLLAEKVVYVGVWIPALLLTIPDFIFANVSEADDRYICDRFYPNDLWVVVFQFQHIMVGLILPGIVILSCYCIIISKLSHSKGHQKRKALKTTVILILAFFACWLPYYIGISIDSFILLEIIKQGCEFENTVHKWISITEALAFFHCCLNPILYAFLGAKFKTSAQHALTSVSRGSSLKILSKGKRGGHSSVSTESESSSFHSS

`Fc1ccc(NCc2ccc(CNc3ccc(F)cc3)nc2)cc1`: the EC in assay [1] is 1000 nM.
Regarding `c1cc(CN2CCCNCCNCCCNCC2)ccc1CN1CCCNCCNCCCNCC1`, the inhibition in assay [2] was 62%. Further, in assay [3], the inhibition entry is “inactive”.
Take `Fc1ccccc1CNc1ccc(NCc2ccccc2F)nc1`: the inhibition in assay [2] is 53.3%. This molecule yielded an EC in assay [1] of 100 nM.
Consider `COc1cccc(CNc2ccc(NCc3cccc(OC)c3)nc2)c1`, for which the EC in assay [1] is > 1000 nM.
Still for that read-out and setting: the same measure for `CCc1ccc(NCc2ccc(CNc3ccc(CC)cc3)nc2)cc1`: 1000 nM; for `O=[N+]([O-])c1ccccc1NCc1ccc(CNc2ccccc2[N+](=O)[O-])nc1`: 1000 nM; for `O=[N+]([O-])c1cccc(CNc2ccc(NCc3cccc([N+](=O)[O-])c3)nc2)c1`: 1000 nM.
Take `CCc1ccc(CNc2ccc(NCc3ccc(CC)cc3)nc2)cc1`: in assay [1], the EC is > 1000 nM.
For the molecule `Cc1ccc(CNc2ccc(NCc3ccc(C)cc3)nc2)cc1`, the inhibition in assay [2] is 35.7%. Besides, the EC in assay [1] was determined as 10 nM.
As for `Cc1ccc(NCc2ccc(CNc3ccc(C)cc3)nc2)cc1`, the inhibition in assay [2] came out at 85.1%. Moreover, the EC in assay [1] was found to be 100 nM. Besides, the inhibition result in assay [3] is “inactive”.
As for `O=[N+]([O-])c1cccc(NCc2ccc(CNc3cccc([N+](=O)[O-])c3)nc2)c1`, in assay [2], the inhibition came to 73.4%. In assay [1], this molecule displayed an EC of 100 nM.
Regarding `Brc1ccc(CNc2ccc(NCc3ccc(Br)cc3)nc2)cc1`, in assay [1], the EC was 1000 nM.
Take `COc1cccc(NCc2ccc(CNc3cccc(OC)c3)nc2)c1`: in assay [2], the inhibition came to 76.8%. Besides, in assay [1], the EC came out at 100 nM. Besides, the inhibition entry in assay [3] is “inactive”.
Regarding `Brc1ccc(NCc2ccc(CNc3ccc(Br)cc3)nc2)cc1`, the EC in assay [1] is 1000 nM.
The same measure, in the same setting: the result for `Clc1ccc(NCc2ccc(CNc3ccc(Cl)cc3)nc2)cc1` reads 1000 nM; that for `Cc1ccccc1NCc1ccc(CNc2ccccc2C)nc1`, 1000 nM; that for `COc1ccc(NCc2ccc(CNc3ccc(OC)cc3)nc2)cc1`, 1000 nM.
As for `Cc1cccc(CNc2ccc(NCc3cccc(C)c3)nc2)c1`, the inhibition in assay [2] was determined as 50.4%. The same molecule displayed an EC in assay [1] of 100 nM.
Take `Cc1ccccc1CNc1ccc(NCc2ccccc2C)nc1`: the inhibition in assay [2] is 82.4%. For the same molecule, the EC in assay [1] stood at 100 nM. For the same molecule, the inhibition in vivo at 10 mg/kg in assay [3] was 3%.
In the same order, the values of `Clc1ccc(CNc2ccc(NCc3ccc(Cl)cc3)nc2)cc1` are 83.7%, 10 nM and 8%.
In the case of `COc1ccccc1CNc1ccc(NCc2ccccc2OC)nc1`, the EC in assay [1] is > 1000 nM.
As to `c1ccc(NCc2ccc(CNc3ccccn3)cc2)nc1`, the inhibition in vivo at 10 mg/kg in assay [3] stood at 40%.
As for `O=[N+]([O-])c1ccc(NCc2ccc(CNc3ccc([N+](=O)[O-])cc3)nc2)cc1`, in assay [2], the inhibition was determined as 80.3%. In assay [1], the EC stood at 1 nM. For the same molecule, in assay [3], the inhibition in vivo at 10 mg/kg worked out at 13%.
For `Fc1cccc(NCc2ccc(CNc3cccc(F)c3)nc2)c1`, the inhibition in assay [2] was 82.4%. In addition, the EC in assay [1] turned out to be 100 nM. The inhibition in vivo at 10 mg/kg in assay [3] stood at 12%.
On to `Fc1cccc(CNc2ccc(NCc3cccc(F)c3)nc2)c1`, for which the inhibition in assay [2] was 4.8%. In addition, the EC in assay [1] turned out to be 100 nM.
In assay [1], `c1ccc(CNc2ccc(NCc3ccccc3)nc2)cc1` showed an EC of 1000 nM.
For `Cc1cccc(NCc2ccc(CNc3cccc(C)c3)nc2)c1`, the inhibition in assay [2] was 99%. Also, the inhibition entry in assay [3] is “inactive”.
On to `Fc1ccccc1NCc1ccc(CNc2ccccc2F)nc1`, for which the EC in assay [1] stood at 1000 nM.
The same measure, in the same setting: the result for `c1ccc(NCc2ccc(CNc3ccccc3)nc2)cc1` reads 1000 nM.
Turning to `Fc1ccc(CNc2ccc(NCc3ccc(F)cc3)nc2)cc1`, in assay [1], the EC worked out at 1000 nM.
For the molecule `O=[N+]([O-])c1ccccc1CNc1ccc(NCc2ccccc2[N+](=O)[O-])nc1`, the EC in assay [1] worked out at 1000 nM.
Turning to `COc1ccccc1NCc1cccc(CNc2ccccc2OC)n1`, the inhibition in assay [2] is < 1%.
For `COc1ccccc1NCc1ccc(CNc2ccccc2OC)nc1`, in assay [2], the inhibition amounted to 84.1%. In addition, in assay [3], the inhibition in vivo at 10 mg/kg is 11%.
The molecule `O=[N+]([O-])c1ccc(CNc2ccc(NCc3ccc([N+](=O)[O-])cc3)nc2)cc1` yielded an EC in assay [1] of 1000 nM.
